Laboratory results taken from publication PMC5218480 (PLoS ONE, 2017).

System: MV-4-11 cells
Experiment: Gene expression microarray analysis (Affymetrix PrimeView) and GSEA
Format: cell-based, human
Set-up: RFU PODN (11730768_x_at) / Fold change /veh PODN (11730768_x_at) / RFU LINC00158 (11744669_a_at) / Fold change /veh LINC00158 (11744669_a_at) / RFU DUSP10 (11751237_a_at) / Fold change /veh DUSP10 (11751237_a_at) / RFU ID3 (11757404_x_at) / Fold change /veh ID3 (11757404_x_at) / RFU PLEKHG5 (11737974_s_at) / Fold change /veh PLEKHG5 (11737974_s_at) / RFU LRRC4B (11730491_at) / Fold change /veh LRRC4B (11730491_at) / RFU GIMAP4 (11747438_a_at) / Fold change /veh GIMAP4 (11747438_a_at) / RFU KRT8 (11758183_x_at) / Fold change /veh KRT8 (11758183_x_at) / RFU CNN1 (11734310_a_at) / Fold change /veh CNN1 (11734310_a_at) / RFU VPS37D (11726825_at) / Fold change /veh VPS37D (11726825_at) / RFU C10orf10 (11716522_x_at) / Fold change /veh C10orf10 (11716522_x_at) / RFU KIR2DL2 /// KIR2DL4 /// KIR2DL5A /// KIR2DL5B /// KIR2DS1 /// KIR2DS2 /// KIR2DS3 /// KIR2DS4 /// KIR3DL3 /// KIR3DL3 /// KIR3DS1 (11738374_at) / Fold change /veh KIR2DL2 /// KIR2DL4 /// KIR2DL5A /// KIR2DL5B /// KIR2DS1 /// KIR2DS2 /// KIR2DS3 /// KIR2DS4 /// KIR3DL3 /// KIR3DL3 /// KIR3DS1 (11738374_at) / RFU C1QL1 (11718748_at) / Fold change /veh C1QL1 (11718748_at) / RFU TMPRSS4 (11747572_a_at) / Fold change /veh TMPRSS4 (11747572_a_at) / RFU HAMP (11756126_x_at) / Fold change /veh HAMP (11756126_x_at) / RFU RNFT2 (11725882_a_at) / Fold change /veh RNFT2 (11725882_a_at) / RFU NR4A2 (11747474_a_at) / Fold change /veh NR4A2 (11747474_a_at) / RFU ABCC12 (11746883_a_at) / Fold change /veh ABCC12 (11746883_a_at) / RFU TMEM136 (11760407_x_at) / Fold change /veh TMEM136 (11760407_x_at) / RFU CLDN22 /// WWC2 (11732394_at) / Fold change /veh CLDN22 /// WWC2 (11732394_at) / RFU HLA-DPB1 (11760878_x_at) / Fold change /veh HLA-DPB1 (11760878_x_at) / RFU SPINT1 (11716480_a_at) / Fold change /veh SPINT1 (11716480_a_at) / RFU GAP43 (11754022_s_at) / Fold change /veh GAP43 (11754022_s_at) / RFU A4GNT (11735810_at) / Fold change /veh A4GNT (11735810_at) / RFU PRB3 (11715151_x_at) / Fold change /veh PRB3 (11715151_x_at) / RFU TUBB4B (11761932_at) / Fold change /veh TUBB4B (11761932_at) / RFU CAPN14 (11732068_a_at) / Fold change /veh CAPN14 (11732068_a_at) / RFU TMCC2 (11721928_a_at) / Fold change /veh TMCC2 (11721928_a_at) / RFU IRGQ (11745062_a_at) / Fold change /veh IRGQ (11745062_a_at) / RFU FAM174B (11720279_a_at) / Fold change /veh FAM174B (11720279_a_at) / RFU TMPRSS4 (11748680_a_at) / Fold change /veh TMPRSS4 (11748680_a_at) / RFU FAM212B (11763350_a_at) / Fold change /veh FAM212B (11763350_a_at) / RFU PLEKHG5 (11743358_a_at) / Fold change /veh PLEKHG5 (11743358_a_at) / RFU ZSCAN30 (11745921_a_at) / Fold change /veh ZSCAN30 (11745921_a_at) / RFU CMKLR1 (11741424_a_at) / Fold change /veh CMKLR1 (11741424_a_at) / RFU LOC101060620 /// MAPK8IP1 (11723275_at) / Fold change /veh LOC101060620 /// MAPK8IP1 (11723275_at) / RFU SPTSSB (11747773_x_at) / Fold change /veh SPTSSB (11747773_x_at) / RFU PRSS12 (11739890_at) / Fold change /veh PRSS12 (11739890_at) / RFU BIN1 (11741810_x_at) / Fold change /veh BIN1 (11741810_x_at) / RFU WNT11 (11732464_a_at) / Fold change /veh WNT11 (11732464_a_at) / RFU C10orf10 (11716521_a_at) / Fold change /veh C10orf10 (11716521_a_at) / RFU C5orf56 (11738089_at) / Fold change /veh C5orf56 (11738089_at) / RFU CYB561 (11721691_x_at) / Fold change /veh CYB561 (11721691_x_at) / RFU ANKRD19P (11752326_a_at) / Fold change /veh ANKRD19P (11752326_a_at) / RFU OR2T12 /// OR2T33 /// OR2T8 (11738714_s_at) / Fold change /veh OR2T12 /// OR2T33 /// OR2T8 (11738714_s_at) / RFU VCAN (11748164_a_at) / Fold change /veh VCAN (11748164_a_at) / RFU JSRP1 (11732532_at) / Fold change /veh JSRP1 (11732532_at) / RFU KRTAP10-11 (11738290_x_at) / Fold change /veh KRTAP10-11 (11738290_x_at) / RFU MYO3A (11730013_a_at) / Fold change /veh MYO3A (11730013_a_at) / RFU EBF3 (11725865_a_at) / Fold change /veh EBF3 (11725865_a_at) / RFU CAMK2N1 (11719241_x_at) / Fold change /veh CAMK2N1 (11719241_x_at) / RFU C5orf56 (11738088_a_at) / Fold change /veh C5orf56 (11738088_a_at) / RFU OLFML3 (11715873_a_at) / Fold change /veh OLFML3 (11715873_a_at) / RFU LOC100653217 /// NTM (11731650_a_at) / Fold change /veh LOC100653217 /// NTM (11731650_a_at) / RFU MAPK11 (11762145_a_at) / Fold change /veh MAPK11 (11762145_a_at) / RFU FIZ1 (11724087_x_at) / Fold change /veh FIZ1 (11724087_x_at) / RFU OASL (11726364_x_at) / Fold change /veh OASL (11726364_x_at) / RFU SOX15 (11748057_x_at) / Fold change /veh SOX15 (11748057_x_at) / RFU CD79A (11719716_a_at) / Fold change /veh CD79A (11719716_a_at) / RFU HIST1H1D (11736915_at) / Fold change /veh HIST1H1D (11736915_at) / RFU CASKIN2 (11723855_a_at) / Fold change /veh CASKIN2 (11723855_a_at) / RFU LOC730098 (11760151_x_at) / Fold change /veh LOC730098 (11760151_x_at) / RFU OR4N2 (11742367_at) / Fold change /veh OR4N2 (11742367_at) / RFU PRRT2 (11749266_a_at) / Fold change /veh PRRT2 (11749266_a_at) / RFU SNX32 (11753110_a_at) / Fold change /veh SNX32 (11753110_a_at) / RFU CDHR5 (11726645_a_at) / Fold change /veh CDHR5 (11726645_a_at) / RFU RCAN1 (11760418_a_at) / Fold change /veh RCAN1 (11760418_a_at) / RFU FAM167A (11723789_a_at) / Fold change /veh FAM167A (11723789_a_at) / RFU FAM26E (11764081_at) / Fold change /veh FAM26E (11764081_at) / RFU ISYNA1 (11749810_s_at) / Fold change /veh ISYNA1 (11749810_s_at) / RFU ACY1 (11761880_at) / Fold change /veh ACY1 (11761880_at) / RFU 11764098_at / Fold change /veh 11764098_at / RFU SAMD14 (11745864_x_at) / Fold change /veh SAMD14 (11745864_x_at) / RFU NPB (11741838_a_at) / Fold change /veh NPB (11741838_a_at) / RFU TMPRSS6 (11731388_a_at) / Fold change /veh TMPRSS6 (11731388_a_at) / RFU KRTAP10-2 (11738614_at) / Fold change /veh KRTAP10-2 (11738614_at) / RFU ARHGAP8 /// PRR5-ARHGAP8 (11727945_x_at) / Fold change /veh ARHGAP8 /// PRR5-ARHGAP8 (11727945_x_at) / RFU KRTAP5-7 /// NADSYN1 (11734609_at) / Fold change /veh KRTAP5-7 /// NADSYN1 (11734609_at) / RFU RASL12 (11751679_a_at) / Fold change /veh RASL12 (11751679_a_at) / RFU CDKN2B (11736163_a_at) / Fold change /veh CDKN2B (11736163_a_at) / RFU PRF1 (11729649_at) / Fold change /veh PRF1 (11729649_at) / RFU, ZNF638 /// ZNF638-IT1 / Fold change vs veh, ZNF638 /// ZNF638-IT1 / RFU, PANK3 / Fold change vs veh, PANK3 / RFU, SH3YL1 / Fold change vs veh, SH3YL1 / RFU, ZEB2 / Fold change vs veh, ZEB2 / RFU, NRIP1 / Fold change vs veh, NRIP1 / RFU, PTTG1IP / Fold change vs veh, PTTG1IP / RFU, CAPN2 / Fold change vs veh, CAPN2 / RFU, MED14 / Fold change vs veh, MED14 / RFU, SNORA58 / Fold change vs veh, SNORA58 / RFU, C1orf63 / Fold change vs veh, C1orf63 / RFU, LRRFIP1 / Fold change vs veh, LRRFIP1 / RFU, NDUFAF7 / Fold change vs veh, NDUFAF7 / RFU, SLC12A2 / Fold change vs veh, SLC12A2 / RFU, IBTK / Fold change vs veh, IBTK / RFU, ESF1 / Fold change vs veh, ESF1 / Fold change vs veh, TMEM50B / RFU, TAOK1 / Fold change vs veh, TAOK1 / RFU, ACBD3 / Fold change vs veh, ACBD3 / RFU, TMA16 / Fold change vs veh, TMA16 / RFU, RWDD3 / Fold change vs veh, RWDD3 / RFU, BCAT1 / Fold change vs veh, BCAT1 / RFU, EDEM3 / Fold change vs veh, EDEM3 / RFU, TMEM33 / Fold change vs veh, TMEM33 / RFU, WDR75 / Fold change vs veh, WDR75 / RFU, AHCTF1 / Fold change vs veh, AHCTF1 / RFU, TFRC / Fold change vs veh, TFRC / RFU, ZDHHC17 / Fold change vs veh, ZDHHC17 / RFU, NOM1 / Fold change vs veh, NOM1 / RFU, ARL8B / Fold change vs veh, ARL8B / RFU, ZBTB11 / Fold change vs veh, ZBTB11 / RFU, TAMM41 / Fold change vs veh, TAMM41 / RFU, KIAA1704 /// LOC100996395 / Fold change vs veh, KIAA1704 /// LOC100996395 / RFU, ING1 / Fold change vs veh, ING1 / RFU, TRMT61B / Fold change vs veh, TRMT61B / RFU, FUBP3 / Fold change vs veh, FUBP3 / RFU, TP53 / Fold change vs veh, TP53 / RFU, TNKS2 / Fold change vs veh, TNKS2 / RFU, ZFP14 / Fold change vs veh, ZFP14 / RFU, ACTR2 / Fold change vs veh, ACTR2 / RFU, PPP3R1 / Fold change vs veh, PPP3R1 / RFU, PIK3R1 / Fold change vs veh, PIK3R1 / RFU, HNRNPA1 / Fold change vs veh, HNRNPA1 / RFU, RNF170 / Fold change vs veh, RNF170 / RFU, ZNF28 / Fold change vs veh, ZNF28 / RFU, RNGTT / Fold change vs veh, RNGTT / RFU, OGT / Fold change vs veh, OGT / RFU, BRD1 / Fold change vs veh, BRD1 / RFU, MARS / Fold change vs veh, MARS / RFU, ZNF655 / Fold change vs veh, ZNF655 / RFU, FAHD1 / Fold change vs veh, FAHD1 / RFU, BDP1 / Fold change vs veh, BDP1 / RFU, LRRCC1 / Fold change vs veh, LRRCC1 / RFU, ARID1A / Fold change vs veh, ARID1A / RFU, ZNF146 / Fold change vs veh, ZNF146 / RFU, ZNF330 / Fold change vs veh, ZNF330 / RFU, GPN3 / Fold change vs veh, GPN3 / RFU, C9orf123 / Fold change vs veh, C9orf123 / RFU, N4BP2L2 / Fold change vs veh, N4BP2L2 / RFU, ARFIP1 / Fold change vs veh, ARFIP1 / RFU, FAM179B / Fold change vs veh, FAM179B / RFU, BCL10 / Fold change vs veh, BCL10 / RFU, UHRF1BP1L / Fold change vs veh, UHRF1BP1L / RFU, BET1 / Fold change vs veh, BET1 / RFU, CNOT2 / Fold change vs veh, CNOT2 / RFU, ZNF268 / Fold change vs veh, ZNF268 / Fold change vs veh, ZNF507 / RFU, DGCR2 / Fold change vs veh, DGCR2 / RFU, WDSUB1 / Fold change vs veh, WDSUB1 / Fold change vs veh, HSP90B1 /// MIR3652 / RFU, ADSS / Fold change vs veh, ADSS / RFU, GK / Fold change vs veh, GK / RFU, ZNF148 / Fold change vs veh, ZNF148 / RFU, TAF9 / Fold change vs veh, TAF9 / RFU, SLC1A5 / Fold change vs veh, SLC1A5 / RFU, SLMO2 / Fold change vs veh, SLMO2 / RFU, ABCC4 / Fold change vs veh, ABCC4 / RFU, LOC101060439 /// RAP1B / Fold change vs veh, LOC101060439 /// RAP1B / RFU, RFX7 / Fold change vs veh, RFX7 / RFU, GTPBP10 / Fold change vs veh, GTPBP10 / RFU, CNEP1R1 / Fold change vs veh, CNEP1R1 / RFU, BIVM-ERCC5 /// ERCC5 / Fold change vs veh, BIVM-ERCC5 /// ERCC5 / RFU, ILF3 / Fold change vs veh, ILF3 / RFU 11762660_at / Fold change /veh 11762660_at / RFU VCAN (11757783_s_at) / Fold change /veh VCAN (11757783_s_at) / RFU DDX43 (11728927_at) / Fold change /veh DDX43 (11728927_at) / RFU KRT8 (11758188_x_at) / Fold change /veh KRT8 (11758188_x_at) / RFU NKD1 (11759106_at) / Fold change /veh NKD1 (11759106_at) / RFU SRD5A1 (11742802_a_at) / Fold change /veh SRD5A1 (11742802_a_at) / RFU TPSAB1 /// TPSB2 (11721975_s_at) / Fold change /veh TPSAB1 /// TPSB2 (11721975_s_at) / RFU GSTM3 (11746129_a_at) / Fold change /veh GSTM3 (11746129_a_at) / RFU IL23R (11737362_x_at) / Fold change /veh IL23R (11737362_x_at) / RFU TMEM51 (11727254_a_at) / Fold change /veh TMEM51 (11727254_a_at) / RFU PIWIL2 (11732686_x_at) / Fold change /veh PIWIL2 (11732686_x_at) / RFU ORM1 (11744905_x_at) / Fold change /veh ORM1 (11744905_x_at) / RFU CCDC152 (11743942_at) / Fold change /veh CCDC152 (11743942_at) / RFU ECM1 (11717891_a_at) / Fold change /veh ECM1 (11717891_a_at) / RFU IL23R (11748794_a_at) / Fold change /veh IL23R (11748794_a_at) / RFU TNFAIP8L3 (11732012_x_at) / Fold change /veh TNFAIP8L3 (11732012_x_at) / RFU MBOAT4 (11741988_at) / Fold change /veh MBOAT4 (11741988_at) / RFU 11764193_at / Fold change /veh 11764193_at / RFU TMEM53 (11763286_at) / Fold change /veh TMEM53 (11763286_at) / RFU MAGEB2 (11727129_at) / Fold change /veh MAGEB2 (11727129_at) / RFU TMEM200A (11744735_a_at) / Fold change /veh TMEM200A (11744735_a_at) / RFU CCDC152 (11751479_a_at) / Fold change /veh CCDC152 (11751479_a_at) / RFU FAM211A (11726209_a_at) / Fold change /veh FAM211A (11726209_a_at) / RFU RGS16 (11746705_a_at) / Fold change /veh RGS16 (11746705_a_at) / RFU VCAN (11755009_s_at) / Fold change /veh VCAN (11755009_s_at) / RFU RHOB (11743442_s_at) / Fold change /veh RHOB (11743442_s_at) / RFU RGS16 (11720943_a_at) / Fold change /veh RGS16 (11720943_a_at) / RFU RGS16 (11720944_at) / Fold change /veh RGS16 (11720944_at) / RFU, VPS4B / Fold change vs veh, VPS4B / RFU, CREB1 / Fold change vs veh, CREB1 / RFU, DNAJC13 / Fold change vs veh, DNAJC13 / RFU, GNAQ / Fold change vs veh, GNAQ / RFU, CDK5R1 / Fold change vs veh, CDK5R1 / RFU, ZRANB3 / Fold change vs veh, ZRANB3 / RFU, CUL4A / Fold change vs veh, CUL4A / RFU, CCNY / Fold change vs veh, CCNY / RFU, UFL1 / Fold change vs veh, UFL1 / RFU, COG3 / Fold change vs veh, COG3 / RFU, DIAPH2 / Fold change vs veh, DIAPH2 / RFU, SKA2 / Fold change vs veh, SKA2 / RFU, AFF3 / Fold change vs veh, AFF3 / RFU, LMF1 / Fold change vs veh, LMF1 / RFU, IPO11 / Fold change vs veh, IPO11 / RFU, DFFB / Fold change vs veh, DFFB / RFU, FOXP1 / Fold change vs veh, FOXP1 / RFU, CARD8 / Fold change vs veh, CARD8 / RFU, STRN3 / Fold change vs veh, STRN3 / RFU, ADK / Fold change vs veh, ADK / RFU, RASSF2 / Fold change vs veh, RASSF2 / RFU, WIPF1 / Fold change vs veh, WIPF1 / RFU, LARP1B / Fold change vs veh, LARP1B / RFU, RASA1 / Fold change vs veh, RASA1 / RFU, RB1 / Fold change vs veh, RB1 / RFU, PPFIA1 / Fold change vs veh, PPFIA1 / RFU, MAT2A / Fold change vs veh, MAT2A / RFU, CCT5 / Fold change vs veh, CCT5 / RFU, WDR92 / Fold change vs veh, WDR92 / RFU, CUX1 / Fold change vs veh, CUX1 / RFU, TTC7A / Fold change vs veh, TTC7A / RFU, TMEM135 / Fold change vs veh, TMEM135 / RFU, DEPTOR / Fold change vs veh, DEPTOR / RFU, CPM / Fold change vs veh, CPM / RFU, DNAJB6 / Fold change vs veh, DNAJB6 / RFU, CACNA2D3 / Fold change vs veh, CACNA2D3 / RFU, DTX4 / Fold change vs veh, DTX4 / RFU, TFCP2 / Fold change vs veh, TFCP2 / RFU, GMCL1 /// GMCL1P1 / Fold change vs veh, GMCL1 /// GMCL1P1 / RFU, AEBP2 / Fold change vs veh, AEBP2 / RFU, SNHG1 /// SNORD22 /// SNORD25 /// SNORD26 /// SNORD27 /// SNORD28 /// SNORD29 /// SNORD31 / Fold change vs veh, SNHG1 /// SNORD22 /// SNORD25 /// SNORD26 /// SNORD27 /// SNORD28 /// SNORD29 /// SNORD31 / Fold change (Aza/veh), C12orf56 (ProbeSet 11735607_a_at) / Fold change (ACY-1035/veh), C12orf56 (ProbeSet 11735607_a_at) / Fold change (Aza/veh), FGFR1OP (ProbeSet 11751329_s_at) / Fold change (ACY-1035/veh), FGFR1OP (ProbeSet 11751329_s_at) / Fold change (Aza/veh), VPS36 (ProbeSet 11739960_a_at) / Fold change (ACY-1035/veh), VPS36 (ProbeSet 11739960_a_at) / RFU SYPL1 (11715823_x_at) / Fold change /veh SYPL1 (11715823_x_at) / RFU IGFBP7 (11715501_s_at) / Fold change /veh IGFBP7 (11715501_s_at) / RFU REEP3 (11722064_at) / Fold change /veh REEP3 (11722064_at) / RFU IGLL1 (11728026_x_at) / Fold change /veh IGLL1 (11728026_x_at): dose or concentration left out as unconfirmed
Details: MV-4-11 cells, 48 hours

Nc1ccc(-c2cccs2)cc1NC(=O)c1ccc2c(c1)cc(C1CC1)n2CCN1CCOCC1 [ACY-1035]
RFU LOC100653217 /// NTM (11731650_a_at): 9.86 RFU
